This note sets out measurements from patent US20090118301A1, “Compositions and Methods for Treating Cancer” (Arbor Vita Corporation, priority 2007, published 2009).

Data set [1] relates to HeLa cells. As to the kind of experiment: TUNEL apoptosis assay, HeLa. The conditions noted are these: 120 M (so in the source), 48 hours, flow cytometry. The class given is cell-based. The procedure:
(§1) To determine whether the compound 7291-0042 induces apoptosis in HPV-positive cervical cancer cell lines, HeLa cells and the HPV-negative cell line C33A were used. HeLa and C33A cells were seeded at 1-2×10^6 in 10-cm dishes and allowed to adhere and grow to 80-90% confluency. Compound 7291-0042 at a concentration of 60 μM, 80 μM, 100 μM, 120 μM, or DMSO was added to the cells 24 hours after plating and incubated for 48 hours. TUNEL assay was performed for the specific quantitation of apoptotic cells within a cell population using the DeadEnd Fluorometric TUNEL System from Promega (Madison, Wis.). Briefly, the cells were harvested by trypsinization and washed in PBS. Cells were then fixed in 4% formalin and incubated in buffer containing nucleotides and rTdT enzyme for 1 hour at 37° C. After terminating the reaction by adding EDTA, cells were washed with PBS and permeabilized with Triton X-100 and propidium iodide was added to stain all the cells. Cells were then analyzed by flow cytometery. Apoptosis signal was quantified by measuring green fluorescence of fluorescein-12-dUTP at 520±20 nm and red fluorescence of propidium iodide at >620 nm.

Data set [2] deals with HeLa cells. In words: WST-1 cytotoxicity assay, HeLa. The class given is cell-based. The following applies: 60 μM, HPV-positive cervical cancer cell line. The protocol:
(§2) To determine the cytotoxicity of the compound 7291-0042, drug toxicity studies were performed in HPV-positive (E6 transformed) cervical cancer cell lines SiHa and HeLa and HPV-negative cervical cancer cell line […]. […] and SiHa cells were seeded onto a 12-well plate, allowed to adhere and grown to 10,000 cells per well. HeLa cells were seeded, allowed to adhere and grown to 5,000 cells per well. 100 μl of compound 7291-0042 at a concentration of 60 μM or DMSO was added to the cells 24 hours after plating. Cytotoxicity of the cells was assessed by the WST-1 calorimetric assay. In brief, the calorimetric assay is based on the cleavage of the tetrazolium salt WST-1 to a formazan-class dye by mitochondrial succinate-tetrazolium reductase in viable cells. As the cells proliferate, more WST-1 is converted to the formazan product. The quantity of formazan dye is directly related to the number of metabolically active cells, and can be quantified by measuring the absorbance at 420-480 nm (Amax 450 nm) in a multiwell plate reader.
For orientation: Tetrazolium assays rely on reduction of a dye to a coloured formazan, in cell work by metabolically active cells.

For the next data set, the system named is E6 protein (HPV18-E6). As to the kind of experiment: E6 oncoprotein expression by Western blot in HeLa cells. The conditions noted are these: 60-120 μM, 24 hours, vs DMSO control and untreated cells. The class given is cell-based. The procedure: To determine whether the compound 7291-0042 has an effect on E6 protein expression, cervical cancer cell line HeLa was used. HeLa cells were seeded, allowed to adhere and grown to 0.5×10^6 cells per well. Compound 7291-0042 at a concentration of 60 μM, 80 μM, 100 μM, 120 μM, or DMSO was added to the cells 24 hours after plating and incubated for 24 hours. Cells that were untreated served as an additional control. Western blot was performed to determine the relative amounts of the E6 protein present in the different samples. Briefly, the cells were homogenized in a lysate buffer and the protein samples were separated using SDS-PAGE and transferred to a membrane for detection. The membrane was incubated with an anti-HPV18-E6 antibody, labeled with a secondary antibody-enzyme conjugate and detected. To ensure that the amount of protein loaded for each sample was similar, the membrane was stripped and labeled with an antibody that recognizes a protein encoding a housekeeping gene. For this experiment, an antibody against glyceraldehyde-3-phosphate dehydrogenase (GAPDH) was used.

The subject of the next data set is SiHa cells. As to the kind of experiment: WST-1 cytotoxicity assay, SiHa. The class given is cell-based. The following applies: 60 μM, HPV-positive cervical cancer cell line. The procedure: as §2
Data set [3] has as its system 3Y1 pBlast-E6-16 cells. As to the kind of experiment: cell migration assay (96-well filter plate). The following applies: 40 μM, 24 hours, OD560; compared with 3Y1 pBlast E6-16 ΔPL cells. In kind it is cell-based, rat. The procedure:
The effect of compound 7291-0042 on the rate of cell migration and proliferation was determined on three different cell lines, 3Y1 pBlast, 3Y1 pBlast-E6-16 and 3Y1 pBlast E6-16 ΔPL.
Plasmid constructs of HPV E6-16 (wild type) and HPV E6-16 ΔPL were generated using the vector pBlast (InvivoGen, Toulouse, France). Recombinant plasmids were generated by recombinant DNA cloning methods known in the art.
These constructs were transfected into rat 3Y1 primary cells using the LipofectAMINE™ 2000 Reagent (Invitrogen Cat#11668-027) and accompanying protocol. pBlast without insert was transfected as a negative control. Cells were incubated at 37° in RPMI media with non-essential amino acids, 10% FBS, and 1 ug/mL […] until confluent (about 4 days).
Each of the three transfected cell lines were seeded onto a 96-well filter plate with a feeder tray and lid in RPMI media with a gradient of 0.5% to 10% FBS and non-essential amino acids. Three different treatments were applied to the cell lines. The cells were treated with either 40 μM or 60 μM of the compound 7291-0042, or DMSO. […] The undersides of the filters were left uncoated. […] Cell migration through the membrane was quantified by staining the cells that attach to the lower side of the membrane with a colorometric dye at OD560 after 24 hours with a microplate reader.

Data set [4] has as its system C33a cells. In words: TUNEL apoptosis assay, C33A. In kind it is cell-based. The conditions noted are these: 120 M (so in the source), 48 hours, flow cytometry. The procedure:
as §1
For orientation: A flow cytometer gives signals particle by particle.

Data set [5] has as its system C33a cells. As to the kind of experiment: WST-1 cytotoxicity assay, C33a. The conditions noted are these: 60 μM, HPV-negative cervical cancer cell line. The class given is cell-based. The procedure: as §2
Data set [6] concerns p53 tumor suppressor protein. As to the kind of experiment: p53 protein expression by immunocytochemistry in HeLa cells. In kind it is cell-based. The following applies: 80-120 μM, 24 hours, vs DMSO control. The procedure: To determine whether the compound 7291-0042 has an effect on p53 protein expression, cervical cancer cell line HeLa was used. HeLa cells were seeded, allowed to adhere and grown to 0.5×10^6 cells per well. 1 ml of compound 7291-0042 at a concentration of 80 μM, 100 μM, 120 μM, or DMSO was added to the cells 24 hours after plating and incubated for 24 hours. Immunocytochemistry with anti-p53 monoclonal antibody was performed to determine the relative amounts of the p53 protein present in the different cell samples.

The target of data set [7] is T1, MAGI-1 PDZ domain 1 (interaction with HPV E6 protein) (Homo sapiens, UniProt Q96QZ7).
T1 construct: MAGI-1 PDZ domain 1 was used as a target for rational drug design
In words: matrix/array PDZ/PL competition assay, titration, Magi1 d1. In kind it is binding. The following applies: compared with the other PDZ domains and compounds of Table 1. The protocol:
The best hits from in silico screening were subject to screening in a matrix/array competition assay format, i.e., assays where docking of ligands to solid phase PDZ domain in fusion proteins was assessed in the presence and absence of the small molecule competitor as described elsewhere. The compounds were screened for inhibition of the PDZ/PL interactions.
The small molecules were considered as hits based on the OD450 readout of the assay. The best of the hits in this analysis were then subject to titration binding studies, i.e., titration of compounds in the same competition assay to estimate the IC50 value.

Data set [8] relates to 3Y1 pBlast-E6-16 cells. In words: cell proliferation assay. In kind it is cell-based, rat. The conditions noted are these: 40 μM; compared with 3Y1 pBlast E6-16 ΔPL and 3Y1 pBlast. The protocol:
Compound 7291-0042 was further analyzed for its ability to block the development of other cancerous characteristics in cells by a cell proliferation assay. The three cell lines described in the Example 2 were seeded onto a 12-well plate, and allowed to adhere and grow to confluent (about 24 hours) in EMEM media with 10% FBS and non-essential amino acids. 100 μl of compound 7291-0042 at concentrations 0 μM, 20 μM, 40 μM, and 80 μM was applied to the cells. The cells were measured at 24, 48, 72 and 96 hours after addition of the compound.

T1 sequence (Q96QZ7 472-554 limits assumed): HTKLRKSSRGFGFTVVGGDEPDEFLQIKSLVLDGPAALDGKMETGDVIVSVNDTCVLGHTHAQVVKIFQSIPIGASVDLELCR

`CCc1cccc2c(C(c3ccccc3OCC(=O)O)c3c[nH]c4c(CC)cccc34)c[nH]c12` [7291-0042]: in the data set on HeLa cells [1], the “apoptotic cells, HeLa” value was found to be 20%. Also, the “cytotoxicity, HeLa cells” value with HeLa cells [2] was “selectively killed”. In addition, the “amount of E6 onco protein” value in the data set with E6 protein (HPV18-E6) was “decreased”. In addition, the “cytotoxicity, SiHa cells” value with SiHa cells is “selectively killed”. Also, the “rate of cell migration” value in the data set on 3Y1 pBlast-E6-16 cells [3] is listed as “restored baseline cell migration”. In the data set with C33a cells [4], the “apoptotic cells, C33A” value stood at 4%. For the same compound, in the data set with C33a cells [5], the “cytotoxicity, C33a cells” value is reported as “remained viable”. For the same compound, the “amount of p53 tumor suppressor protein” value in [6] was “increased”. Moreover, in data set [7], the “specificity of disruption of the interaction between HPV E6 protein and MAGI-1 PDZ1” value was “greatest specificity”. In the data set with 3Y1 pBlast-E6-16 cells [8], the “rate of cell proliferation” value was “restored baseline rate of cell proliferation”.
